“And” between values parts separate entries of the source, which are not always exact repeats. Equal entries are not always repeated. Inconclusive results are not listed.
Tested on: BDF1 mice, colon carcinoma 38 sc, T/C %
Assay: NCI In Vivo Anticancer Drug Screen. Data for tumor model Colon Carcinoma 38 (subcutaneous) in B6D2F1 (BDF1) mice
Conditions: endpoint: median tumor weight (est.), higher = larger tumour
In short: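 Transplantable tumor in mice; compound-treated vs vehicle-dosed controls. Measured survival or tumor size; value = T ÷ C.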

[1] = dose: 25.0 mg/kg/injection, schedule: Q07DX002 (ip), vehicle: saline
[2] = dose: 50.0 mg/kg/injection, schedule: Q07DX002 (ip), vehicle: saline
[3] = dose: 100.0 mg/kg/injection, schedule: Q07DX002 (ip), vehicle: saline
[4] = dose: 200.0 mg/kg/injection, schedule: Q07DX002 (ip), vehicle: saline
[5] = dose: 400.0 mg/kg/injection, schedule: Q07DX002 (ip), vehicle: saline
[6] = dose: 25.0 mg/kg/injection, schedule: Q07DX002 (ip), vehicle: saline with Tween-80
[7] = dose: 50.0 mg/kg/injection, schedule: Q07DX002 (ip), vehicle: saline with Tween-80
[8] = dose: 100.0 mg/kg/injection, schedule: Q07DX002 (ip), vehicle: saline with Tween-80
[9] = dose: 12.5 mg/kg/injection, schedule: Q07DX002 (ip), vehicle: Klucel (hydroxypropylcellulose) (HPC)
[10] = dose: 25.0 mg/kg/injection, schedule: Q07DX002 (ip), vehicle: Klucel (hydroxypropylcellulose) (HPC)
[11] = dose: 100.0 mg/kg/injection, schedule: Q07DX002 (ip), vehicle: Klucel (hydroxypropylcellulose) (HPC)

N/C=N/O
T/C [1]: 124 % of control | T/C [2]: 70 % of control | T/C [3]: 97 % of control | T/C [4]: 92 % of control | T/C [5]: 56 % of control

O=S(=O)(CCl)OCCCl
T/C (dose: 12.5 mg/kg/injection, schedule: Q07DX002 (ip), vehicle: saline with Tween-80): 103 % of control | T/C [6]: 111 % of control | T/C [7]: 58 % of control | T/C [8]: 55 % of control

Cc1cc(O)c(N=Nc2ccc(C(=O)O)cc2)cc1C
T/C [6]: 108 % of control | T/C [7]: 104 % of control | T/C [8]: 100 % of control | T/C (dose: 200.0 mg/kg/injection, schedule: Q07DX002 (ip), vehicle: saline with Tween-80): 55 % of control | T/C (dose: 400.0 mg/kg/injection, schedule: Q07DX002 (ip), vehicle: saline with Tween-80): 84 % of control

Ic1ncnc2c1ncn2C1CCCO1 (stereo not drawn)
T/C [9]: 68 % of control and 70 % of control | T/C [10]: 52 % of control and 68 % of control | T/C [11]: 56 % of control and 80 % of control | T/C (dose: 200.0 mg/kg/injection, schedule: Q07DX002 (ip), vehicle: Klucel (hydroxypropylcellulose) (HPC)): 81 % of control | T/C (dose: 400.0 mg/kg/injection, schedule: Q07DX002 (ip), vehicle: Klucel (hydroxypropylcellulose) (HPC)): 55 % of control

CC(=O)OCC1OC([S-])C(OC(C)=O)C(OC(C)=O)C1OC(C)=O.CC[PH+](CC)CC.CC[PH+](CC)CC.[Au].[Au] (stereo not drawn)
T/C (dose: 2.5 mg/kg/injection, schedule: Q07DX002 (ip), vehicle: Klucel (hydroxypropylcellulose) (HPC)): 99 % of control | T/C (dose: 10.0 mg/kg/injection, schedule: Q07DX002 (ip), vehicle: Klucel (hydroxypropylcellulose) (HPC)): 89 % of control and 93 % of control

COC(=O)[C@@]12OC[C@]34[C@H]([C@@H](O)[C@@H]1O)[C@@]1(C)CC(=O)C(O)=C(C)[C@@H]1C[C@H]3OC(=O)[C@H](OC(=O)/C=C(\C)C(C)C)[C@@H]24
T/C (dose: 0.25 mg/kg/injection, schedule: Q07DX003 (ip), vehicle: other): 72 % of control | T/C (dose: 0.5 mg/kg/injection, schedule: Q07DX003 (ip), vehicle: other): 98 % of control

COC(=O)CC(N)C(=O)O (stereo not drawn)
T/C [1]: 95 % of control | T/C [2]: 70 % of control | T/C [3]: 86 % of control | T/C [4]: 61 % of control | T/C [5]: 50 % of control

O=S(CCCl)CCCl
T/C (dose: 0.78 mg/kg/injection, schedule: Q07DX003 (ip), vehicle: Klucel (hydroxypropylcellulose) (HPC)): 57 % of control | T/C (dose: 1.56 mg/kg/injection, schedule: Q07DX003 (ip), vehicle: Klucel (hydroxypropylcellulose) (HPC)): 84 % of control | T/C (dose: 3.12 mg/kg/injection, schedule: Q07DX003 (ip), vehicle: Klucel (hydroxypropylcellulose) (HPC)): 83 % of control | T/C (dose: 6.25 mg/kg/injection, schedule: Q07DX003 (ip), vehicle: Klucel (hydroxypropylcellulose) (HPC)): 87 % of control | T/C [9]: 150 % of control | T/C (dose: 12.5 mg/kg/injection, schedule: Q07DX003 (ip), vehicle: Klucel (hydroxypropylcellulose) (HPC)): 84 % of control | T/C [10]: 96 % of control | T/C (dose: 25.0 mg/kg/injection, schedule: Q07DX003 (ip), vehicle: Klucel (hydroxypropylcellulose) (HPC)): 95 % of control | T/C (dose: 50.0 mg/kg/injection, schedule: Q07DX002 (ip), vehicle: Klucel (hydroxypropylcellulose) (HPC)): 153 % of control | T/C [11]: 110 % of control

From PubChem BioAssay AID212 (DTP/NCI, 2004)
